Assay results published in patent publication US5959109A, “Compounds and methods for increasing endogenous levels of corticotropin-releasing factor” (Neurocrine Biosciences, Inc., priority 1996, dated 1999).
Read-outs that look alike come from different tables or passages of the source.

Columns and labels:
[1] = target: T1, human recombinant CRF-BP (Homo sapiens, UniProt P24387); test: LIRMA: displacement of 125I-h/rCRF from CRF-BP, Ki; type: binding
T1 construct: made in house
T1 sequence (P24387 25-322): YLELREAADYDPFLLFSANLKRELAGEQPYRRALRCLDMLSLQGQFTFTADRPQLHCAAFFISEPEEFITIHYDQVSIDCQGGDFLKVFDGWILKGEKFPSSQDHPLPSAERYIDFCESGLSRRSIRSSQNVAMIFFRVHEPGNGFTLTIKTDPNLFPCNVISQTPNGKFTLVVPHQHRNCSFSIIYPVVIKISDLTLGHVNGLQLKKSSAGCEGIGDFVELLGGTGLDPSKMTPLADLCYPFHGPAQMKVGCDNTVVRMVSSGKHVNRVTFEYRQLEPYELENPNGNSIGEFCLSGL
Experimental: In LIRMA CRF-BP isolated from brain tissue, serum, or cells expressing a recombinant form, is added to wells of a 96-well plate, to small polypropylene microfuge tubes, or to glass borosilicate tubes in a binding buffer (0.02% NP-40 in 50 mM phosphate-buffered saline). ^125 I-h/rCRF (New England Nuclear) and the candidate ligand inhibitor at 10 μM are added and the reaction is incubated for 1 hour at room temperature. An appropriately diluted anti-CRF-BP antibody, such as a rabbit anti-hCRF-BP (Potter et al., Proc. Natl. Acad. Sci. USA 89:4192-4196, 1992) is added to each tube, and after further incubation, bound complexes are precipitated by the further addition of a goat anti-rabbit antibody. The precipitate containing ^125 I-CRF is collected by centrifugation and the amount of radioactivity in the pellet is determined by a gamma counter. If the candidate ligand inhibitor displaces CRF from CRF-BP, the pellets will contain less radioactivity in comparison to controls in which no candidate peptide is added. Maximum inhibition (i.e., 100%) of the binding of ^125 I-h/rCRF to the CRF-BP is defined by the amount of radioactivity left in the pellets after incubation with 10 μM of the CRF-BP peptide ligand h/rCRF (6-33). Thus, the binding potency of the candidate ligand inhibitor will be measured relative to the potency of the standard h/rCRF (6-33).
Thus, a ligand having a Ki of less than that of hCRF will bind more strongly to hCRF-BP than will hCRF itself, and a ligand having a higher value will have a relatively lower binding affinity.
The assay is performed in 600 μl polypropylene microfuge tubes or a 96-well plate. First, 50 μl of a 250 ng/ml of purified recombinant CRF-BP is added to 150 μl of PBS binding buffer (50 mM sodium phosphate, 0.15M NaCl, and 0.02% NP-40). Next, ^125 I-h/r CRF at a final concentration of 200 pM and 50 μl of a 10-100 μM concentration of the ligand inhibitor are added and incubated for 1 hour at room temperature. To the reaction, 50 μl of anti-CRF-BP antibody, 5144, diluted 1:1000 with assay buffer is added to each tube and allowed to bind for a further 1 hour at room temperature. The total volume in all tubes is adjusted to 300 μl with assay buffer. Bound complexes are precipitated by the addition of 200 μl of preprecipitated goat anti-rabbit (GAR) second antibody at 1:20 in 1% normal rabbit serum, 4% PEG, 50 mM sodium phosphate, 0.1% sodium azide, followed by incubation for 1 hour at room temperature. The antibody-bound ^125 I-CRF precipitate is then collected by centrifugation (3000×g) at 4° C. for 20 minutes in a Beckman GS-15R centrifuge. Using a Beckman Biomer 1000 robotic workstation, the tubes are aspirated and washed once with 600 μl of PBS plus 0.02% NP-40. Tubes containing the pellets are then transferred to 12×74 mm counting tubes and counted in a gamma counter.
Inhibitory binding affinity constant (Ki) values are determined using the method of Munson et al., Anal. Biochem. 107:220, 1980.

[2] = human, in vivo; cited from earlier work
[3] = test system: human CRF-BP; conditions: cited from earlier work
[4] = read-out: inhibitory binding affinity constant (Ki)
[5] = inhibitory binding affinity constant (Ki)

Row | Compound | Ki [1, 5] [nM] | other results
1 | O=c1oc2ccc(Cl)cc2c(O)c1C=NC(=S)Nc1ccc(Cl)cc1 [Compound 1, 3-(p-chlorophenyl)thioureidomethylene-4-oxo-6-chloro-coumarin] | – | Ki [1, 4]: < 50 nM
2 | O=c1oc2ccc(Cl)cc2c(O)c1C=NC(=S)Nc1ccc(Cl)c(Cl)c1 [Compound 2] | – | Ki [1, 4]: < 50 nM
3 | O=c1oc2ccc(Cl)cc2c(O)c1C=NC(=S)Nc1ccc(C(F)(F)F)cc1 [Compound 6] | – | Ki [1, 4]: < 50 nM
4 | O=c1oc2ccc(Cl)cc2c(O)c1C=NC(=S)Nc1c(Cl)cc(Cl)cc1Cl [Compound 7] | – | Ki [1, 4]: < 50 nM
5 | O=c1oc2ccc(Cl)cc2c(O)c1C=NC(=S)Nc1ccc(C2CCCCC2)cc1 [Compound 10] | – | Ki [1, 4]: < 50 nM
6 | O=c1oc2ccc(Cl)cc2c(O)c1C=NC(=S)Nc1ccc(-c2ccccc2)cc1 [Compound 19] | – | Ki [1, 4]: < 50 nM
7 | O=c1oc2ccc(Cl)cc2c(O)c1C=NC(=S)Nc1ccccc1-c1ccccc1 [Compound 20] | – | Ki [1, 4]: < 50 nM
8 | O=c1oc2ccc3ccccc3c2c(O)c1C=NC(=S)Nc1ccc(Cl)cc1 [Compound 29] | – | Ki [1, 4]: < 100 nM
9 | O=c1oc2c(Cl)cccc2c(O)c1C=NC(=S)Nc1ccc(Cl)cc1 [Compound 31] | – | Ki [1, 4]: < 50 nM
10 | O=c1oc2c(Cl)cc(Cl)cc2c(O)c1C=NC(=S)Nc1ccc(Cl)cc1 [Compound 32] | – | Ki [1, 4]: < 50 nM
11 | O=c1oc2ccc(Cl)cc2c(O)c1C=Nc1nc2c(Cl)cccc2s1 [Compound 36] | – | Ki [1, 4]: < 50 nM
12 | COc1cccc2sc(N=Cc3c(O)c4cc(Cl)ccc4oc3=O)nc12 [Compound 40] | – | Ki [1, 4]: < 100 nM
13 | O=c1oc2cc(Cl)ccc2c(O)c1C=Nc1nc2c(Cl)cccc2s1 [Compound 44] | – | Ki [1, 4]: < 50 nM
14 | O=c1oc2cc(Cl)ccc2c(O)c1C=Nc1nc2ccc(Cl)cc2s1 [Compound 45] | – | Ki [1, 4]: < 50 nM
15 | CCn1c(O)c(C=NC(=S)Nc2c(Cl)cc(Cl)cc2Cl)c(=O)n(CC)c1=S [Compound 49] | < 100 | –
16 | O=c1c(C=NC(=S)Nc2ccc(Cl)cc2)c(O)n(Cc2ccccc2)c(=S)n1Cc1ccccc1 [Compound 53] | < 100 | –
17 | CCCn1c(O)c(C=NC(=S)Nc2ccc(Cl)cc2)c(=O)n(CCC)c1=S [Compound 54] | < 100 | –
18 | CCn1c(=O)c(C=Nc2nc3ccccc3[nH]2)c(O)n(CCc2ccccc2)c1=S [Compound 58-1] | – | Ki [1, 4]: < 100 nM
19 | CCn1c(O)c(C=Nc2nc3ccccc3[nH]2)c(=O)n(CC)c1=S [Compound 58] | < 50 | –
20 | CCn1c(O)c(C=Nc2nc3c(C)cccc3s2)c(=O)n(CC)c1=S [Compound 72] | < 100 | –

Row | Compound | Ki [1, 5] [nM] | other results
21 | CCn1c(=O)c(C=Nc2nc3c(OC)cccc3s2)c(O)n(CCc2ccccc2)c1=S [Compound 73-1] | < 100 | –
22 | CCn1c(O)c(C=Nc2nc3c(OC)cccc3s2)c(=O)n(CC)c1=S [Compound 73] | < 50 | –
23 | CCn1c(O)c(C=Nc2nc3ccc(Cl)cc3s2)c(=O)n(CC)c1=S [Compound 74] | < 100 | –
24 | CCn1c(=O)c(C=Nc2nc3ccc(C)cc3s2)c(O)n(CCc2ccccc2)c1=S [Compound 75-1] | < 100 | –
25 | CCn1c(O)c(C=Nc2nc3ccc(C)cc3s2)c(=O)n(CC)c1=S [Compound 75] | < 50 | –
26 | CCn1c(=O)c(C=Nc2nc3ccc(OC)cc3s2)c(O)n(CCc2ccccc2)c1=S [Compound 76-1] | < 100 | –
27 | CCn1c(O)c(C=Nc2nc3ccc(OC)cc3s2)c(=O)n(CC)c1=S [Compound 76] | < 50 | –
28 | CCn1c(O)c(C=Nc2nc3ccc([N+](=O)[O-])cc3s2)c(=O)n(CC)c1=S [Compound 79] | < 100 | –
29 | CCn1c(O)c(C=Nc2nc3c(C(F)(F)F)cccc3s2)c(=O)n(CC)c1=S [Compound 80] | < 100 | –
30 | CCn1c(O)c(C=Nc2nc3cc([N+](=O)[O-])ccc3s2)c(=O)n(CC)c1=S [Compound 82] | < 50 | –
31 | CCn1c(=O)c(C=Nc2nc3cc(C)c(C)cc3[nH]2)c(O)n(CCc2ccccc2)c1=S [Compound 85-1] | < 50 | –
32 | CCn1c(O)c(C=Nc2nc3cc(C)c(C)cc3[nH]2)c(=O)n(CC)c1=S [Compound 85] | < 50 | –
33 | CCn1c(O)c(C=Nc2nc3cc(C)ccc3[nH]2)c(=O)n(CC)c1=S [Compound 86] | < 50 | –
34 | CCn1c(=O)c(C=Nc2nc3c(Cl)cccc3s2)c(O)n(CCc2ccccc2)c1=S [Compound 95-1] | < 100 | –
35 | O=c1c(C=Nc2nc3ccccc3[nH]2)c(O)n(CCc2cccs2)c(=S)n1CCc1cccs1 [Compound 97] | < 50 | –
36 | CCCn1c(O)c(C=Nc2nnc(C)s2)c(=O)n(CCC)c1=S [Compound 103] | < 100 | –
37 | CCn1c(=O)c(C=Nc2nnc(C(F)(F)F)s2)c(O)n(CCc2ccccc2)c1=S [Compound 104-1] | < 100 | –
38 | CCn1c(O)c(C=Nc2nnc(C(F)(F)F)s2)c(=O)n(CC)c1=S [Compound 104] | < 100 | –
39 | O=c1c(C=Nc2nnc(C(F)(F)F)s2)c(O)n(Cc2ccccc2)c(=S)n1Cc1ccccc1 [Compound 105] | < 100 | –
40 | CCCn1c(O)c(C=Nc2nnc(C(F)(F)F)s2)c(=O)n(CCC)c1=S [Compound 106] | < 100 | –

Row | Compound | Ki [1, 5] [nM] | other results
41 | CCn1c(=O)c(C=Nc2nncs2)c(O)n(CCc2ccccc2)c1=S [Compound 110-1] | < 50 | –
42 | O=c1c(C=Nc2nncs2)c(O)n(Cc2ccccc2)c(=S)n1Cc1ccccc1 [Compound 111] | < 50 | –
43 | CCSc1nnc(N=Cc2c(O)n(Cc3ccccc3)c(=S)n(Cc3ccccc3)c2=O)s1 [Compound 115] | < 100 | –
44 | CCCn1c(O)c(C=Nc2nnc(SCC)s2)c(=O)n(CCC)c1=S [Compound 116] | < 100 | –
45 | CCn1c(=O)c(C=Nc2ncc(C)s2)c(O)n(CCc2ccccc2)c1=S [Compound 117-1] | < 100 | –
46 | Cc1cnc(N=Cc2c(O)n(Cc3ccccc3)c(=S)n(Cc3ccccc3)c2=O)s1 [Compound 118] | < 50 | –
47 | CCCCCCCCCCCCCCCCSc1nnc(N=Cc2c(O)n(Cc3ccccc3)c(=S)n(Cc3ccccc3)c2=O)s1 [Compound 121] | < 50 | –
48 | CCn1c(=O)c(C=Nc2nc(N(Cc3ccccc3)c3ccccc3)ns2)c(O)n(CCc2ccccc2)c1=S [Compound 131-1] | < 50 | –
49 | O=c1c(C=Nc2nc(N(Cc3ccccc3)c3ccccc3)ns2)c(O)n(Cc2ccccc2)c(=S)n1Cc1ccccc1 [Compound 132] | < 50 | –
50 | CCCn1c(O)c(C=Nc2nc(N(Cc3ccccc3)c3ccccc3)ns2)c(=O)n(CCC)c1=S [Compound 133] | < 50 | –
51 | O=c1c(C=Nc2ncc(Br)s2)c(O)n(Cc2ccccc2)c(=S)n1Cc1ccccc1 [Compound 140] | < 100 | –
52 | CCCn1c(O)c(C=Nc2nnc(CC)s2)c(=O)n(CCC)c1=S [Compound 150] | < 100 | –
53 | Cc1cnc(N=Cc2c(O)n(Cc3cccs3)c(=S)n(Cc3cccs3)c2=O)s1 [Compound 157] | < 50 | –
54 | CCCn1c(O)c(C=Nc2nc3c(s2)CCC3)c(=O)n(CCC)c1=S [Compound 172] | < 50 | –
55 | Nc1c2c(nc3ccccc13)CCCC2 [Tacrine] | – | memory improvement in Alzheimer's patients [2]: only marginal memory improvement; side effects [2]: elevating liver enzymes
56 | CC(NC(C)(C)C)C(=O)c1cccc(Cl)c1 (stereo not drawn) [bupropion] | – | side effects [2]: convulsions
57 | CNCCC(Oc1ccc(C(F)(F)F)cc1)c1ccccc1 (stereo not drawn) [fluoxetine] | – | side effects [2]: suicidality
58 | oCRF: the standard oCRF, which is arbitrarily considered as 1.0 | – | affinity for CRF-BP [3]: low affinity
59 | sauvagine | – | affinity for CRF-BP [3]: bind CRF-BP with high affinity
